Data published in patent US20260132132A1, “3A,4,5,6-TETRAHYDRO-1 H-PYRAZOLO[3,4-C]PYRIDIN-7(7AH)-ONE DERIVATIVES AS FACTOR XIIA INHIBITORS” (KALVISTA PHARMACEUTICALS LIMITED, priority 2022, published 2026).

Tests used:
[1] = biological target: FXa (Homo sapiens, UniProt P00742); assay: Related protease inhibition: FXa, fluorogenic substrate; assay type: biochemical; settings: fluorogenic substrate at Km, 25° C.; H1-H3 = % activity at 40 μM
Description: Human serine protease enzyme Plasma Kallikrein, KLK1, FXa, Plasmin, Thrombin and Trypsin were assayed for enzymatic activity using an appropriate fluorogenic substrate at Km concentration, FXIa at fixed substrate concentration of 100 μM and various concentrations of the test compound.

[2] = biological target: T1, Human Factor XIIa (hFXIIa) (Homo sapiens, UniProt P00748); assay: Determination of Human Factor XIIa (hFXIIa) inhibition, fluorogenic substrate IC50 assay; assay type: biochemical; settings: fluorogenic substrate H-DPro-Phe-Arg-AFC at Km, 25° C., read-out: Human FXIIa IC50
T1 construct: purchased Enzyme Research Laboratories
T1 sequence (P00748 373-615 limits assumed): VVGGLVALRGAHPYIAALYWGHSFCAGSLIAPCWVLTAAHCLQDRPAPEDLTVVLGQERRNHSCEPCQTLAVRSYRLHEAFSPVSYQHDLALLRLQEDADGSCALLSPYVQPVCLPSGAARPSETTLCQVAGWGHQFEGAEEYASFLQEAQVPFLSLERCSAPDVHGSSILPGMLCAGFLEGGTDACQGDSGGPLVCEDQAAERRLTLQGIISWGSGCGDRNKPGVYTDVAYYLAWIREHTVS
T1 sequence (P00748 20-372 partner limits assumed): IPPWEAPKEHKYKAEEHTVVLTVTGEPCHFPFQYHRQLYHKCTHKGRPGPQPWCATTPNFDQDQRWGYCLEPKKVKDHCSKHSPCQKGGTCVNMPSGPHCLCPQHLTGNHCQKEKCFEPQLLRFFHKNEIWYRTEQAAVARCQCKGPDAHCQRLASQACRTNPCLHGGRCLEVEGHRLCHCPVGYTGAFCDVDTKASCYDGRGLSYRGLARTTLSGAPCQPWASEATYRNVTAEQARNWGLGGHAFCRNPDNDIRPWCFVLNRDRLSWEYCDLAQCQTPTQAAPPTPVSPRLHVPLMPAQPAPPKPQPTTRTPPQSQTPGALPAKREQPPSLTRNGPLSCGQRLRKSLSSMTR
Description: Determination of Human Factor XIIa (hFXIIa) inhibition
The Km for the cleavage of the substrate by hFXIIa was determined by standard transformation of the Michaelis-Menten equation, with subsequent inhibition assays performed at substrate Km concentration.

FXa, sequence (P00742 235-488 limits assumed): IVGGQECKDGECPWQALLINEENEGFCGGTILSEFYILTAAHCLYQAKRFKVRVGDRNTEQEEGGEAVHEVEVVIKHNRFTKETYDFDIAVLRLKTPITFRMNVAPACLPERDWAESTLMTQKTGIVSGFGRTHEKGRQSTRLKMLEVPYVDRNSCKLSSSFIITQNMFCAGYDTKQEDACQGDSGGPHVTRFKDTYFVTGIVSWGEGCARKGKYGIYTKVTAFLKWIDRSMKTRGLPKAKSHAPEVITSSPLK
FXa, sequence (P00742 41-179 partner limits assumed): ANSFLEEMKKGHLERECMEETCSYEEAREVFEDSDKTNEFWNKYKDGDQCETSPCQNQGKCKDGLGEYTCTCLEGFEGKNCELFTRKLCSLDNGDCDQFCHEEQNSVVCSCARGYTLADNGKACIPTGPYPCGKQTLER

Compound	IC50 [1]	IC50 [2]
O=C(N[C@H](CO)c1ccccc1)c1nn(-c2cccc(Cl)c2)c2c1CCN(c1cccc(CN3CCCCC3)c1)C2=O [Example 1008, (S)-1-(3-chlorophenyl)-N-(2-hydroxy-1-phenylethyl)-7-oxo-6-(3-(piperidin-1-ylmethyl)phenyl)-4,5,6,7-tetrahydro-1H-pyrazolo[3,4-c]pyridine-3-carboxamide]	> 100 µM	0.3 to 1 µM
Cc1cc(CNC(=O)c2nn(-c3cccc(Cl)c3)c3c2CCN(c2ccc4c(c2)C(=O)N(CCO)[C@H](C)CO4)C3=O)n[nH]1 [Example 1373, (R)-1-(3-chlorophenyl)-6-(4-(2-hydroxyethyl)-3-methyl-5-oxo-2,3,4,5-tetrahydrobenzo[f][1,4]oxazepin-7-yl)-N-((5-methyl-1H-pyrazol-3-yl)methyl)-7-oxo-4,5,6,7-tetrahydro-1H-pyrazolo[3,4-c]pyridine-3-carboxamide]	> 40 µM	0.3 to 1 µM
CN1CCc2ccc(N3CCc4c(C(=O)NC5CCC5)nn(-c5cccc(Cl)c5)c4C3=O)cc2C1=O [Example 1346, 1-(3-chlorophenyl)-N-cyclobutyl-6-(2-methyl-1-oxo-1,2,3,4-tetrahydroisoquinolin-7-yl)-7-oxo-4,5,6,7-tetrahydro-1H-pyrazolo[3,4-c]pyridine-3-carboxamide]	> 40 µM	0.3 to 1 µM
Cc1cc(CNC(=O)c2nn(-c3cccc(Cl)c3)c3c2CCN(c2ccc4c(c2)C(=O)N(CCO)CCC4)C3=O)nn1C [Example 1305, 1-(3-chlorophenyl)-N-((1,5-dimethyl-1H-pyrazol-3-yl)methyl)-6-(2-(2-hydroxyethyl)-1-oxo-2,3,4,5-tetrahydro-1H-benzo[c]azepin-8-yl)-7-oxo-4,5,6,7-tetrahydro-1H-pyrazolo[3,4-c]pyridine-3-carboxamide]	3 to 10 µM	0.01 to 0.1 µM
CN1CCc2ccc(N3CCc4c(C(=O)NCC5CC5)nn(-c5cccc(C#N)c5)c4C3=O)cc2C1=O [Example 2005, 1-(3-cyanophenyl)-N-(cyclopropylmethyl)-6-(2-methyl-1-oxo-1,2,3,4-tetrahydroisoquinolin-7-yl)-7-oxo-4,5,6,7-tetrahydro-1H-pyrazolo[3,4-c]pyridine-3-carboxamide]	> 40 µM	0.3 to 1 µM
CCN1CCc2ccc(N3CCc4c(C(=O)NCc5cnccc5C)nn(-c5cccc(Cl)c5)c4C3=O)cc2C1 [Example 1140, 1-(3-chlorophenyl)-6-(2-ethyl-1,2,3,4-tetrahydroisoquinolin-7-yl)-N-((4-methylpyridin-3-yl)methyl)-7-oxo-4,5,6,7-tetrahydro-1H-pyrazolo[3,4-c]pyridine-3-carboxamide]	3 to 10 µM	0.01 to 0.1 µM
O=C(NCc1cc(C2CC2)n[nH]1)c1nn(-c2cccc(Cl)c2)c2c1CCN(c1ccc3c(c1)CN(CCO)CC3)C2=O [Example 1127, 1-(3-chlorophenyl)-N-((3-cyclopropyl-1H-pyrazol-5-yl)methyl)-6-(2-(2-hydroxyethyl)-1,2,3,4-tetrahydroisoquinolin-7-yl)-7-oxo-4,5,6,7-tetrahydro-1H-pyrazolo[3,4-c]pyridine-3-carboxamide]	10 to 40 µM	0.01 to 0.1 µM
Cc1cc(CNC(=O)c2nn(-c3cccc(Cl)c3)c3c2CCN(c2ccc4c(c2)C(=O)N(CCCO)CC4)C3=O)nn1C [Example 1275, 1-(3-chlorophenyl)-N-((1,5-dimethyl-1H-pyrazol-3-yl)methyl)-6-(2-(3-hydroxypropyl)-1-oxo-1,2,3,4-tetrahydroisoquinolin-7-yl)-7-oxo-4,5,6,7-tetrahydro-1H-pyrazolo[3,4-c]pyridine-3-carboxamide]	10 to 40 µM	0.01 to 0.1 µM
CCNC(=O)c1nn(-c2cc(Cl)ccc2F)c2c1CCN(c1ccc3c(c1)C(=O)N(C)CC3)C2=O [Example 2030, 1-(5-chloro-2-fluorophenyl)-N-ethyl-6-(2-methyl-1-oxo-1,2,3,4-tetrahydroisoquinolin-7-yl)-7-oxo-4,5,6,7-tetrahydro-1H-pyrazolo[3,4-c]pyridine-3-carboxamide]	10 to 40 µM	3 to 10 µM
Cc1cccc(-n2nc(C(=O)NCc3cnccc3C)c3c2C(=O)N(c2ccc4c(c2)CN(CCO)CC4)CC3)c1 [Example 2008, 6-(2-(2-hydroxyethyl)-1,2,3,4-tetrahydroisoquinolin-7-yl)-N-((4-methylpyridin-3-yl)methyl)-7-oxo-1-(m-tolyl)-4,5,6,7-tetrahydro-1H-pyrazolo[3,4-c]pyridine-3-carboxamide]	3 to 10 µM	0.01 to 0.1 µM
Cc1ccncc1C(=O)NCc1nn(-c2cccc(Cl)c2)c2c(=O)n(-c3ccc4c(c3)CN(CCO)CC4)c(C)nc12 [Example 3010, N-((1-(3-chlorophenyl)-6-(2-(2-hydroxyethyl)-1,2,3,4-tetrahydroisoquinolin-7-yl)-5-methyl-7-oxo-6,7-dihydro-1H-pyrazolo[4,3-d]pyrimidin-3-yl)methyl)-4-methylnicotinamide]	3 to 10 µM	0.3 to 1 µM
CCNC(=O)c1nn(-c2cccc(Cl)c2)c2c1CCN(c1ccc(OC)c(N3CCCC3=O)c1)C2=O [Example 1401, 1-(3-chlorophenyl)-N-ethyl-6-(4-methoxy-3-(2-oxopyrrolidin-1-yl)phenyl)-7-oxo-4,5,6,7-tetrahydro-1H-pyrazolo[3,4-c]pyridine-3-carboxamide]	> 40 µM	1 to 3 µM
O=C(NC1CCCCC1)c1nn(-c2cccc(Cl)c2)c2c1CCN(c1cccc(CN3CCCCC3)c1)C2=O [Example 1010, 1-(3-chlorophenyl)-N-cyclohexyl-7-oxo-6-(3-(piperidin-1-ylmethyl)phenyl)-4,5,6,7-tetrahydro-1H-pyrazolo[3,4-c]pyridine-3-carboxamide]	> 100 µM	0.3 to 1 µM
O=C(NC1CCOCC1)c1nn(-c2cccc(Cl)c2)c2c1CCN(c1ccc3c(c1)CN(CCO)CC3)C2=O [Example 1076, 1-(3-chlorophenyl)-6-(2-(2-hydroxyethyl)-1,2,3,4-tetrahydroisoquinolin-7-yl)-7-oxo-N-(tetrahydro-2H-pyran-4-yl)-4,5,6,7-tetrahydro-1H-pyrazolo[3,4-c]pyridine-3-carboxamide]	10 to 40 µM	0.1 to 0.3 µM
CN1C(=O)CCc2ccc(N3CCc4c(C(=O)NCC5CC5)nn(-c5cccc(Cl)c5)c4C3=O)cc21 [Example 1207, 1-(3-chlorophenyl)-N-(cyclopropylmethyl)-6-(1-methyl-2-oxo-1,2,3,4-tetrahydroquinolin-7-yl)-7-oxo-4,5,6,7-tetrahydro-1H-pyrazolo[3,4-c]pyridine-3-carboxamide]	> 40 µM	3 to 10 µM
O=C(NCc1ccn(C2CC2)n1)c1nn(-c2cccc(Cl)c2)c2c1CCN(c1ccc3c(c1)C(=O)N(CCO)CC3)C2=O [Example 1355, 1-(3-chlorophenyl)-N-((1-cyclopropyl-1H-pyrazol-3-yl)methyl)-6-(2-(2-hydroxyethyl)-1-oxo-1,2,3,4-tetrahydroisoquinolin-7-yl)-7-oxo-4,5,6,7-tetrahydro-1H-pyrazolo[3,4-c]pyridine-3-carboxamide]	> 40 µM	0.1 to 0.3 µM
COc1cc(N2CCc3c(C(=O)NCC4CC4)nn(-c4cccc(Cl)c4)c3C2=O)cc2c1CCN(CCO)C2 [Example 1226, 1-(3-chlorophenyl)-N-(cyclopropylmethyl)-6-(2-(2-hydroxyethyl)-5-methoxy-1,2,3,4-tetrahydroisoquinolin-7-yl)-7-oxo-4,5,6,7-tetrahydro-1H-pyrazolo[3,4-c]pyridine-3-carboxamide]	> 40 µM	0.1 to 0.3 µM
CCNC(=O)c1nn(-c2cccc(Cl)c2C)c2c1CCN(c1ccc3c(c1)C(=O)N(C)CC3)C2=O [Example 2036, 1-(3-chloro-2-methylphenyl)-N-ethyl-6-(2-methyl-1-oxo-1,2,3,4-tetrahydroisoquinolin-7-yl)-7-oxo-4,5,6,7-tetrahydro-1H-pyrazolo[3,4-c]pyridine-3-carboxamide]	> 40 µM	1 to 3 µM
CN1CCc2ccc(N3CCc4c(C(=O)NCC5(CO)COC5)nn(-c5cccc(Cl)c5)c4C3=O)cc2C1=O [Example 1252, 1-(3-chlorophenyl)-N-((3-(hydroxymethyl)oxetan-3-yl)methyl)-6-(2-methyl-1-oxo-1,2,3,4-tetrahydroisoquinolin-7-yl)-7-oxo-4,5,6,7-tetrahydro-1H-pyrazolo[3,4-c]pyridine-3-carboxamide]	> 40 µM	0.3 to 1 µM
CN1CCc2ccc(N3CCc4c(C(=O)NCC(=O)O)nn(-c5cccc(Cl)c5)c4C3=O)cc2C1=O [Example 1341, (1-(3-chlorophenyl)-6-(2-methyl-1-oxo-1,2,3,4-tetrahydroisoquinolin-7-yl)-7-oxo-4,5,6,7-tetrahydro-1H-pyrazolo[3,4-c]pyridine-3-carbonyl)glycine]	10 to 40 µM	0.3 to 1 µM
